Like-named read-outs stand apart in the source and are kept apart here.
Columns and labels:
Kl. pneumoniae = experiment: MIC by Steers' agar dilution method; format: cell-based; conditions: Klebsiella pneumoniae
Shig. sonnei = experiment: MIC by Steers' agar dilution method; format: cell-based; conditions: Shigella sonnei, MHA
B. anthracis = experiment: microbe, parasite or virus in culture; format: cell-based; conditions: Bacillus anthracis
[1] = Blood levels in mice after subcutaneous administration; format: in vivo; conditions: mouse, read-out: Blood level; for concentration at 0.25 h: 15'; for concentration at 0.5 h: 30'; for concentration at 1 h: 60'; for concentration at 2 h: 120'
Protocol: Groups of mice were administered subcutaneously graded doses of 40, 20 and 10 mg./kg..

Pr. morganii = experiment: MIC by Steers' agar dilution method; conditions: Morganella morganii
Pr. rettgeri = experiment: MIC by Steers' agar dilution method; conditions: Providencia rettgeri
P. inconstans = experiment: MIC by Steers' agar dilution method; conditions: Providencia alcalifaciens
Klebsiella sp. = experiment: MIC by Steers' agar dilution method

Cn1nnnc1SCC1=C(C(=O)O)N2C(=O)[C@@H](NC(=O)[C@H](O)c3ccccc3)[C@H]2SC1 [Cefamandole, cefamandole, reference compound]
1500 ng/mL: concentration at 0.5 h ([1]; sc 10 mg./kg.)
0.05 µg/mL: MIC (Shig. sonnei; A9516, Table 1)
1.6 µg/mL: MIC (Kl. pneumoniae; Kp-2 A9678, MHA, Table 3) | MIC (Pr. morganii; Pg-2 A20031, MHA, Table 3) | MIC (Pr. morganii; Pg-3 A9636, MHA, Table 3) | MIC (Pr. morganii; Pg-6 A20455 (β-lactamase), MHA, Table 4) | MIC (Pr. morganii; Pg-6 A20455 (β-lactamase), NA, Table 4) | MIC (Pr. morganii; Pg-6 A20455, MHA, Table 3) | MIC (Klebsiella sp.; Kx-2 A9662, MHA, Table 3)
11000 ng/mL: concentration at 0.5 h ([1]; sc 40 mg./kg.)
0.8 µg/mL: MIC (Kl. pneumoniae; A9867, MHA, Table 1) | MIC (Kl. pneumoniae; A15130, MHA, Table 1) | MIC (Kl. pneumoniae; Kp-1 D11, MHA, Table 3) | MIC (Kl. pneumoniae; Kp-3 A9977, HIA, Table 4) | MIC (Kl. pneumoniae; Kp-3 A9977, MHA, Table 3) | MIC (Kl. pneumoniae; Kp-3 A9977, MHA, Table 4) | MIC (Kl. pneumoniae; Kp-4 A15130, HIA, Table 4) | MIC (Kl. pneumoniae; Kp-4 A15130, MHA, Table 3) | MIC (Kl. pneumoniae; Kp-4 A15130, MHA, Table 4) | MIC (Kl. pneumoniae; Kp-4 A15130, NA, Table 4) | MIC (Kl. pneumoniae; Kp-7 A9867, MHA, Table 3) | MIC (Kl. pneumoniae; strain not named (2nd of 4), MHA, Example 10) | MIC (Kl. pneumoniae; strain not named (3rd of 4), MHA, Example 10) | MIC (Kl. pneumoniae; strain not named (4th of 4), MHA, Example 10) | MIC (Pr. morganii; A20031, MHA, Table 1) | MIC (Pr. morganii; Pg-2 A20031, HIA, Table 4) | MIC (Pr. morganii; Pg-2 A20031, MHA, Table 4) | MIC (Pr. morganii; Pg-7 A20457, MHA, Table 3) | MIC (Pr. morganii; Pg-8 A15153, MHA, Table 3) | MIC (Pr. morganii; strain not named (2nd of 2), MHA, Example 10) | MIC (Pr. rettgeri; Pr-5 A20915, MHA, Table 3) | MIC (P. inconstans) | MIC (Klebsiella sp.; Kx-3 A20346, MHA, Table 3)
4100 ng/mL: concentration at 0.5 h ([1]; sc 20 mg./kg.)
6.3 µg/mL: MIC (Kl. pneumoniae; Kp-12 A21228, MHA, Table 3)
1000 ng/mL: concentration at 1 h ([1]; sc 20 mg./kg.)
0.4 µg/mL: MIC (Kl. pneumoniae; Kp-3 A9977, NA, Table 4) | MIC (B. anthracis; Ba-3 A9504, MHA, Table 4) | MIC (B. anthracis; Ba-3 A9504, NA, Table 4) | MIC (B. anthracis; MHA, Example 10) | MIC (Pr. morganii; Pg-2 A20031, NA, Table 4) | MIC (Pr. rettgeri; MHA, Example 10) | MIC (Klebsiella sp.; Kx-3 A20346 (β-lactamase), HIA, Table 4) | MIC (Klebsiella sp.; Kx-3 A20346 (β-lactamase), MHA, Table 4) | MIC (Klebsiella sp.; Kx-3 A20346 (β-lactamase), NA, Table 4)
> 100 µg/mL: MIC (Pr. morganii; A9553, MHA, Table 1) | MIC (Pr. morganii; Pg-1 A9553 (β-lactamase), HIA, Table 4) | MIC (Pr. morganii; Pg-1 A9553 (β-lactamase), MHA, Table 4) | MIC (Pr. morganii; Pg-1 A9553 (β-lactamase), NA, Table 4) | MIC (Pr. morganii; Pg-1 A9553, MHA, Table 3) | MIC (Pr. morganii; strain not given (1st of 2), MHA, Example 10)
9500 ng/mL: concentration at 0.25 h ([1]; sc 20 mg./kg.)
3900 ng/mL: concentration at 1 h ([1]; sc 40 mg./kg.)
12.5 µg/mL: MIC (Kl. pneumoniae; Kp-8 A20680, MHA, Table 3) | MIC (Kl. pneumoniae; Kp-9 A20636, MHA, Table 3) | MIC (Kl. pneumoniae; Kp-11 A20330, MHA, Table 3)
3.1 µg/mL: MIC (Kl. pneumoniae; A9678, MHA, Table 1) | MIC (Kl. pneumoniae; Kp-10 A20328, MHA, Table 3) | MIC (Kl. pneumoniae; strain not named (1st of 4), MHA, Example 10) | MIC (Pr. morganii; Pg-6 A20455 (β-lactamase), HIA, Table 4) | MIC (Pr. morganii; Pg-9 A15149, MHA, Table 3)
0.1 µg/mL: MIC (Shig. sonnei; Ss-1 Yale, Table 3) | MIC (Pr. rettgeri; Pr-1 A15167, HIA, Table 4) | MIC (Pr. rettgeri; Pr-2 A9637, MHA, Table 3) | MIC (Pr. rettgeri; Pr-4 A20645, MHA, Table 3)
0.2 µg/mL: MIC (Kl. pneumoniae; A9977, MHA, Table 1) | MIC (Shig. sonnei; Example 10) | MIC (B. anthracis; Ba-3 A9504, HIA, Table 4) | MIC (Pr. morganii; Pg-5 A15166, MHA, Table 3) | MIC (Pr. rettgeri; A15167, MHA, Table 1) | MIC (Pr. rettgeri; Pr-1 A15167, MHA, Table 3) | MIC (Pr. rettgeri; Pr-1 A15167, MHA, Table 4) | MIC (Pr. rettgeri; Pr-1 A15167, NA, Table 4) | MIC (Pr. rettgeri; Pr-6 A20920, MHA, Table 3)
100 ng/mL: concentration at 2 h ([1]; sc 10 mg./kg.)
3800 ng/mL: concentration at 0.25 h ([1]; sc 10 mg./kg.)
< 100 ng/mL: concentration at 2 h ([1]; sc 20 mg./kg.)
300 ng/mL: concentration at 1 h ([1]; sc 10 mg./kg.) | concentration at 2 h ([1]; sc 40 mg./kg.)
18000 ng/mL: concentration at 0.25 h ([1]; sc 40 mg./kg.)

From patent publication US4112228A, “7-(D-α-Hydroxy-2-arylacetamido)-3-(2-carboxyalkyl-2,3-dihydro-s-tri azolo-[4,3-b]pyridazin-3-on-6-ylthiomethyl)-3-cephem-4-carboxylic acids and derivatives” (priority 1977, dated 1978)
